Reference: patent US20240166626A1, “Compounds and Methods for Preventing, Treating, or Ameliorating Airway Disease” (THOMAS JEFFERSON UNIVERSITY, priority 2021, published 2024)

Tested on: mouse airway tissue
Test: Measurement of airway contractility in ex vivo mouse lung tissue slices
Procedure: FIGS. 4A-4F: DFPQ inhibits internalization of the β2AR and protects from agonist induced desensitization in cell and tissue models. FIG. 4A: Effect of DFPQ on agonist-promoted internalization of the β2AR. HEK 293 cells stably expressing FLAG-β2AR were pre-incubated with 0.1% DMSO or 10 μM DFPQ for 30 min and then stimulated with the indicated concentrations of ISO for up to 60 min. Cells were fixed and receptor surface expression was measured by ELISA. […] Cells were lysed and cAMP production was measured by ELISA. […] FIG. 4C: Mouse airway tissue were contracted with 1 μM methacholine for 5 min and then incubated overnight with 1 μM ISO±1 μM DFPQ. […] Airway contractility was measured by luminal area of bronchioles by microscopy at various times. […]
Cell culture GLOSENSOR™ cells (Promega) were maintained in Dulbecco's modified Eagle's medium (DMEM) containing 10% fetal bovine serum (FBS) and 200 μg/ml Hygromycin B. […]® ADRB2 cells (DiscoveRx) were maintained with the AssayComplete™ Cell Culture kit (DiscoveRx catalog #92-3107G). […] Cells were read every three minutes for 18 minutes on a PolarStar Optima plate reader (BMG) to establish peak signal. ISO was added to each well to a final concentration of 1 μM, and luminescence was determined in kinetic mode at room temperature (23-25° C.). […] Luminescence was determined at room temperature (23-25° C.) on a PolarStar Optima plate reader (BMG). […]

Fc1ccc(Nc2nc(NC3CCCCC3)c3ccccc3n2)cc1F [DFPQ, N^4-cyclohexyl-N^2-(3,4-difluorophenyl)quinazoline-2,4-diamine]
ISO mediated reversal of airway contraction on day 2 (overnight 1 μM ISO + 1 μM DFPQ, relative to control, FIG. 4C): largely preserved
protection from desensitization (up to 25 minutes post ISO challenge on day 2, FIG. 4D): significant protection from desensitization
